Assay results taken from US20230391779A1, “BICYCLIC COMPOUNDS, COMPOSITIONS AND USE THEREOF” (Betta Pharmaceuticals Co., Ltd., priority 2020, published 2023).
pEC50: −log10 of the molar value.

Tested on: TEAD-YAP/TAZ interaction
Test: CTGF ELISA assay
Format: cell-based, human
Conditions: CTGF in culture supernatant of NCI-H2052 cells, 24 hours with compound
Method: The detection of CTGF expression level can assessed the binding activity of TEAD-YAP/TAZ transcription factor, and the CTGF expression level was quantified by SimpleStep ELISA® kit (Abcam, ab261851).
NCI-H2052 cells (Purchased from ATCC) were cultured in RPMI 1640 medium, adding 10% FBS and 1% Penicillin-Streptomycin Solution and 1 mM Sodium pyruvate. The day before compounds treatment, the cultured cells were washed with PBS and digested with trypsin, then centrifuged and collected. Discarded the supernatant, the cells were resuspended in fresh complete medium. After cells counted, cells were seeded at 6500 cells/well in 96-well plates. And then cells were cultured overnight in incubator (37° C., 5% CO2).
After the cells were cultured overnight, discarded the culture supernatant, then washed with PBS solution, cells were incubated with 200 μl medium containing compounds in each well. The starting concentration was 10 μM and serial dilution in DMSO and medium were performed to achieve a final DMSO concentration of 0.5% (Final compounds concentration were 10000, 2500, 625, 156, 39.1, 9.77, 2.44, 0.61 nM, 0 nM (0.5% DMSO), The cells were then cultured in incubator (37° C., 5% CO2). Cultured for 24 hours, the cells were centrifuged at 1500 RPM at 4° C. for 5 minutes, and then 50 μl of culture supernatant were tested for CTGF ELISA assay.
The Human CTGF SimpleStep ELISA® Kit (Abcam, ab261851) employs an affinity tag labeled capture antibody and a reporter conjugated detector antibody which immunocapture the sample analyte in solution. This entire complex (capture antibody/analyte/detector antibody) is in turn immobilized via immunoaffinity of an anti-tag antibody coating the well. To perform the assay, samples or standards are added to the wells, followed by the antibody mix (capture antibody/detector antibody). After incubation, the wells are washed to remove unbound material. TMB Development Solution is added and during incubation is catalyzed by HRP, generating blue coloration. This reaction is then stopped by addition of Stop Solution completing any color change from blue to yellow. Signal is generated proportionally to the amount of bound analyte and the intensity is measured at 450 nm. Firstly, prepare all reagents, samples, and standards as instructed. Add 50 μl standard or sample to appropriate wells. Then add 50 μl of the Antibody Cocktail to each well. Seal the plate and incubate for 1 hour at room temperature on a plate shaker. Wash each well with Wash Buffer three times. Add 100 μl of TMB Development Solution to each well and incubate for 10 minutes in the dark on a plate shaker. Add 100 μl of Stop Solution to each well. Shake plate on a plate shaker for 1 minute to mix. Record the OD at 450 nm. Determine the concentration of the target protein in the sample by the standard curve.
EC50 value was determined by fitting the concentration response curves using GraphPad Prism software. The compounds of the present invention were tested for their capacity to inhibit TEAD-YAP/TAZ interaction according to the fitted curves of CTGF concentration response to compounds.

Question: `C=C(F)C(=O)Nc1cc(-n2nc(-c3ccc(C(F)(F)F)cc3)c3cccnc32)ccc1OC` [Compound 188, 2-fluoro-N-(2-methoxy-5-(3-(4-(trifluoromethyl)phenyl)-1H-pyrazolo[3,4-b]pyridin-1-yl)-phenyl)acrylamide] was tested. Which pEC50 did it give?
Answer: 10.22

Question: How did the pEC50 turn out when `C=C(F)C(=O)N1CC(n2c(=O)n(-c3ccc(Oc4ccccc4)cc3)c3cnccc32)C1` [Com. EX.4, 1-(1-(2-fluoroacryloyl)azetidin-3-yl)-3-(4-phenoxyphenyl)-1,3-dihydro-2H-imidazo[4,5-c]pyridin-2-one, reference compound] was run?
Answer: < 5.00

Question: `C=CC(=O)Nc1cc(-n2nc(-c3ccc(C(F)(F)F)cc3)c3cccnc32)ccc1Cl` [Compound 189, N-(2-chloro-5-(3-(4-(trifluoro-methyl)phenyl)-1H-pyrazolo[3,4-b]pyridin-1-yl)phenyl)acrylamide] was tested. Which pEC50 did it give?
Answer: 7.62

Question: How did the pEC50 turn out when `C=C(F)C(=O)N1CC(n2nc(-c3ccc(C#N)c(C(F)(F)F)c3)c3cccnc32)C1` [Compound 178, 4-(1-(1-(2-fluoroacryloyl)azetidin-3-yl)-1H-pyrazolo[3,4-b]pyridin-3-yl)-2-(trifluoromethyl)benzo-nitrile] was run?
Answer: 7.47

Question: With `C=C(F)C(=O)N1CC(n2nc(Nc3ccc(C(F)(F)F)cc3)c3ccc(C)nc32)C1` [Compound 11, 2 fluoro-1-(3-(6-methyl-3-((4-(trifluoromethyl)phenyl)amino)-1H-pyrazolo[3,4-b]pyridin-1 yl)azetidin-1 yl)prop-2-en-1-one] as the molecule, how does the pEC50 read?
Answer: 9.15

Question: How did the pEC50 turn out when `C=C(F)C(=O)N1CC(n2nc(-c3ccc(C(F)(F)F)nc3)c3ccc(C)nc32)C1` [Compound 199, 2-fluoro-1-(3-(6-methyl-3-(6-(trifluoromethyl)pyridin-3-yl)-1H-pyrazolo[3,4-b]pyridin-1-yl)-azetidin-1-yl)prop-2-en-1-one] was run?
Answer: 7.70

Question: `C=CC(=O)NC1CCC(n2nc(-c3ccc(C(F)(F)F)cc3)c3ccccc32)C1` (stereo not shown) [Compound 37, N-(3-(3-(4-(trifluoromethyl)phen-yl)-1H-indazol-1-yl)cyclopentyl)-acrylamide] was tested. Which pEC50 did it give?
Answer: 7.38

Question: How did the pEC50 turn out when `C=C(F)C(=O)N1CC(n2nc(-c3ccc(C(F)(F)F)cc3)c3ncc(OC)nc32)C1` [Compound 223, 2-fluoro-1-(3-(6-methoxy-3-(4-(trifluoromethyl)phenyl)-1H-pyrazolo[3,4-b]pyrazin-1-yl)-azetidin-1-yl)prop-2-en-1-one] was run?
Answer: 9.22

Question: `C=CC(=O)N1CCC(n2nc(-c3ccc(C(F)(F)F)nc3)c3cccc(C(=O)NC4CC4)c32)C1` (stereo not shown) [Compound 100, 1-(1-acryloylpyrrolidin-3-yl)-N-cyclopropyl-3-(6-(trifluorometh-yl)pyridin-3-yl)-1H-indazole-7-carboxamide] was tested. Which pEC50 did it give?
Answer: 7.30

Question: `C=C(F)C(=O)N1CC(n2nc(-c3ccc(C(F)(F)F)cc3)c3ccnc(OC)c32)C1` [Compound 222, 2-fluoro-1-(3-(7-methoxy-3-(4-(trifluoromethyl)phenyl)-1H-pyrazolo[3,4-c]pyridin-1-yl)-azetidin-1-yl)prop-2-en-1-one] was tested. Which pEC50 did it give?
Answer: 9.05

Question: `C=C(F)C(=O)N1CC(n2nc(-c3ccc(C(F)(F)F)cc3)c3nc(C)n(C)c(=O)c32)C1` [Compound 225, 1-(1-(2-fluoroacryloyl)azetidin-3-yl)-5,6-dimethyl-3-(4-(trifluoro-methyl)phenyl)-1,6-dihydro-7H-pyrazolo[4,3-d]pyrimidin-7-one] was tested. Which pEC50 did it give?
Answer: 8.44

Question: `C=C(F)C(=O)N1CC(n2nc(-c3ccc(C(F)(F)F)cc3)c3ccc(N(C)C)nc32)C1` [Compound 122, 1-(3-(6-(dimethylamino)-3-(4-(trifluoromethyl)phenyl)-1H-pyrazolo[3,4-b]pyridin-1-yl)-azetidin-1-yl)-2-fluoroprop-2-en-1-one] was tested. Which pEC50 did it give?
Answer: 7.62

Question: How did the pEC50 turn out when `C=CC(=O)N1CCC(n2nc(-c3ccc(C(F)(F)F)cc3)c3cccc(C(=O)NC4CCC(F)(F)CC4)c32)C1` (stereo not shown) [Compound 111, 1-(1-acryloylpyrrolidin-3-yl)-N-(4,4-difluorocyclohexyl)-3-(4-(trifluoromethyl)phenyl)-1H-indazole-7-carboxamide] was run?
Answer: 7.08

Question: With `C=C(F)C(=O)N1CC(n2nc(-c3ccc(C(F)(F)F)cc3)c3ccc[n+]([O-])c32)C1` [Compound 165, 1-(1-(2-fluoroacryloyl)azetidin-3-yl)-3-(4-(trifluoromethyl)phenyl)-1H-pyrazolo[3,4-b]pyridine 7-oxide] as the molecule, how does the pEC50 read?
Answer: 7.40

Question: `CC(=O)N1CCC(n2nc(-c3ccc(C(F)(F)F)cc3)c3ccccc32)C1` (stereo not shown) [Com. EX.3, 1-(3-(3-(4-(trifluoromethyl)phenyl)-1H-indazol-1-yl)pyrrolidin-1-yl)ethan-1-one, reference compound] was tested. Which pEC50 did it give?
Answer: < 5.00

Question: With `C=CC(=O)N1CCC(n2nc(-c3ccc(C(F)(F)F)cc3)c3cc(OC)cnc32)C1` (stereo not shown) [Compound 94, 1-(3-(5-methoxy-3-(4-(trifluoro-methyl)phenyl)-1H-pyrazolo[3,4-b]pyridin-1-yl)pyrrolidin-1-yl)-prop-2-en-1-one] as the molecule, how does the pEC50 read?
Answer: 7.92

Question: With `C=CC(=O)N1CCC(c2nn(-c3ccc(C(F)(F)F)cc3)c3ccccc23)C1` (stereo not shown) [Compound 4, 1-(3-(1-(4-(trifluoromethyl)phenyl)-1H-indazol-3-yl)pyrrolidin-1-yl)prop-2-en-1-one] as the molecule, how does the pEC50 read?
Answer: 7.81

Question: With `C=C(F)C(=O)N1CC(n2nc(-c3ccc(C(F)(F)F)cc3)c3ccccc32)C1` [Compound 196, 2-fluoro-1-(3-(3-(4-(trifluoro-methyl)phenyl)-1H-indazol-1-yl)azetidin-1-yl)prop-2-en-1-one] as the molecule, how does the pEC50 read?
Answer: 8.05

Question: With `C=C(F)C(=O)N1CC(n2nc(-c3ccc(C(F)(F)F)cc3)c3ccc(Cl)nc32)C1` [Compound 187, 1-(3-(6-chloro-3-(4-(trifluoro-methyl)phenyl)-1H-pyrazolo[3,4-b]pyridin-1-yl)azetidin-1-yl)-2-fluoroprop-2-en-1-one] as the molecule, how does the pEC50 read?
Answer: 8.70

Question: With `C=CC(=O)N1CCC(n2nc(-c3ccc(C(F)(F)F)cc3)c3cccc(C(N)=O)c32)C1` (stereo not shown) [Compound 42, 1-(1-acryloylpyrrolidin-3-yl)-3-(4-(trifluoromethyl)phenyl)-1H-indazole-7-carboxamide] as the molecule, how does the pEC50 read?
Answer: 7.85

Question: `C=C(F)C(=O)N1CC(n2c(=O)n(-c3ccc(C(F)(F)F)cc3)c3ncccc32)C1` [Compound 239, 1-(1-(2-fluoroacryloyl)azetidin-3-yl)-3-(4-(trifluoromethyl)phenyl)-1,3-dihydro-2H-imidazo[4,5-b]pyridin-2-one] was tested. Which pEC50 did it give?
Answer: 7.82

Question: With `C=CC(=O)N1CC(n2nc(-c3ccc(C(F)(F)F)cc3F)c3cccnc32)C1` [Compound 127, 1-(3-(3-(2-fluoro-4-(trifluoro-methyl)phenyl)-1H-pyrazolo[3,4-b]pyridin-1-yl)azetidin-1-yl)prop-2-en-1-one] as the molecule, how does the pEC50 read?
Answer: 8.10

Question: `C=C(F)C(=O)N1CC(n2c(=O)n(-c3ccc(C(F)(F)F)cc3)c3cc(C)cnc32)C1` [Compound 244, 3-(1-(2-fluoroacryloyl)azetidin-3-yl)-6-methyl-1-(4-(trifluoromethyl)phenyl)-1,3-dihydro-2H-imidazo[4,5-b]pyridin-2-one] was tested. Which pEC50 did it give?
Answer: 7.96

Question: How did the pEC50 turn out when `C=CC(=O)N1CCC(n2nc(-c3ccc(C(F)(F)F)cc3)c3ccc(OC)cc32)C1` (stereo not shown) [Compound 54, 1-(3-(6-methoxy-3-(4-(trifluoro-methyl)phenyl)-1H-indazol-1-yl)-pyrrolidin-1-yl)prop-2-en-1-one] was run?
Answer: 7.49

Question: With `C=CC(=O)N1CCC(n2nc(-c3ccc(C(F)(F)F)cc3)c3ncn(C)c(=O)c32)C1` (stereo not shown) [Compound 7, 1-(1-acryloylpyrrolidin-3-yl)-6-methyl-3-(4-(trifluoromethyl)phenyl)-1,6-dihydro-7H-pyrazolo[4,3-d]pyrimidin-7-one] as the molecule, how does the pEC50 read?
Answer: 8.30

Question: How did the pEC50 turn out when `C=C(F)C(=O)N1CC(n2nc(-c3ccc(C(F)(F)F)nc3)c3ccccc32)C1` [Compound 197, 2-fluoro-1-(3-(3-(6-(trifluoro-methyl)pyridin-3-yl)-1H-indazol-1-yl)azetidin-1-yl)prop-2-en-1-one] was run?
Answer: 7.90

Question: `C=CC(=O)N1CCC(n2nc(-c3ccc(C(F)(F)F)nc3)c3cccc(C(=O)NC)c32)C1` (stereo not shown) [Compound 102, 1-(1-acryloylpyrrolidin-3-yl)-N-methyl-3-(6-(trifluoromethyl)-pyridin-3-yl)-1H-indazole-7-carboxamide] was tested. Which pEC50 did it give?
Answer: 6.74

Question: `C=CC(=O)N1CCC(n2nc(-c3ccc(C(F)(F)F)cc3)c3cc(F)c(F)cc32)C1` (stereo not shown) [Compound 51, 1-(3-(5,6-difluoro-3-(4-(trifluoro-methyl)phenyl)-1H-indazol-1-yl)-pyrrolidin-1-yl)prop-2-en-1-one] was tested. Which pEC50 did it give?
Answer: 7.36
